The text below walks through data of patent EP0328090A2 (priority 1988, dated 1989).

Starred links: 1 amine or outer side, 2 acyl side, 3 side chain; linkers in the order of their positions; H or OH if unused. Non-standard residues stand in square brackets, D forms with d. Residues, ends and D or L forms follow the SMILES beside them. X1 = CCNC[C@@H](C(=O)[*:2])N(C)[*:1]; Sar = CNCC(=O)O

The first test has as its target T1, LHRH receptors (Rattus norvegicus, UniProt P30969).
T1 sequence (P30969 1-327): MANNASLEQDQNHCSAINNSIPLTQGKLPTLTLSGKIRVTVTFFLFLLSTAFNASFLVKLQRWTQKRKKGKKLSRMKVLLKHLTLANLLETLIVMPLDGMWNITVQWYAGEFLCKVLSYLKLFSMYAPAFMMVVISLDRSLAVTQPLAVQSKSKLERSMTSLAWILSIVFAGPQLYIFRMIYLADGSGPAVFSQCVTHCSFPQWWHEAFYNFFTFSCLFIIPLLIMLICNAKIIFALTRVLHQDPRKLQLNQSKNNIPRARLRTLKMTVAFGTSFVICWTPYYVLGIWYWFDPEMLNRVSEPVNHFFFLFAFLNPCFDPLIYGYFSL
The experiment in a line: Radioligand receptor binding assay. The following applies: rat pituitary membranes; radioiodinated [D-Leu⁶-des Gly¹⁰]-LHRH ethyl amide 50pM; 2 hours at 4°C; read-out: Receptor Binding pkI (converted). Here is the method: (§1) The biological activities of the compounds of the invention are determined by the following assays: • (a) Receptor Binding. A radioligand receptor binding assay is performed in a similar way to that described in the literature (J. Marion et al., Mol. Pharmacol. 19 399 (1981)). […] The radioligand (50pM), receptors, and compounds to be tested are coincubated for 2 hours at 4°C. Bound ligand is separated from free ligand via centrifugation and aspiration. […] This assay has been adopted from the literature (H.A. Jinnah and P.M. Conn, Endrocrinology 118 2599 (1986)). Rat pituitaries are removed from immature female rats, minced, and dissociated with collagenase/hyaluronidase. They are allowed to attach to 48-well microtiter plates for 48-72 hours, then are exposed to test compounds for 3 hours at 37°C. The medium is assayed for released LH by RIA (radioimmunoassay). […] The compound to be tested is administered to castrated rats intraveneously and the serum LH concentration at various time points is measured by RIA. The time inteorated LH response is calculated and the dose producing half-maximal LH release (ED₅₀) is reported. • (d) Stability against enzymatic degradation. The intestinal stability of the compounds of the invention was determined using in vitro rat jejunum in a reperfusion system. The fractional mucosal loss was an indicator of the relative rate if degradation of the compounds thirty minutes after introduction of the luminal bath.
For `CC(C)C[C@H](NC(=O)[C@@H](Cc1ccc2ccccc2c1)NC(=O)[C@H](Cc1ccc(O)cc1)NC(=O)[C@H](CO)N(C)C(=O)[C@H](Cc1c[nH]c2ccccc12)NC(=O)[C@H](Cc1c[nH]cn1)NC(=O)[C@@H]1CCC(=O)N1)C(=O)N[C@@H](CCCN=C(N)N)C(=O)N1CCC[C@H]1C(=O)NCC(N)=O` [Ex. 3, (pyro)Glu-His-Trp-N-Me-Ser-Tyr-D-(2)-Nal-Leu-Arg-Pro-Gly-NH₂], the Ki was 0.0398 nM.
As for `CCNC(=O)[C@@H]1CCCN1C(=O)[C@H](CCCNC(=N)N)NC(=O)[C@H](CC(C)C)N1CC[C@H](NC(=O)[C@H](Cc2ccc(O)cc2)NC(=O)[C@H](CO)N(C)C(=O)[C@H](Cc2c[nH]c3ccccc23)NC(=O)[C@H](Cc2c[nH]cn2)NC(=O)[C@@H]2CCC(=O)N2)C1=O` [Ex. 13, (pyro)-Glu-His-Trp-N-Me-Ser-Tyr-6,7-[2-(S-3-amino-2-oxo-pyrrolidin-1-yl)-S-2-Isopropylmethylacetyl]-Arg-Pro-NHEt], the Ki is 0.038 nM.
Take `CCNC(=O)[C@@H]1CCCN1C(=O)[C@H](CCCN=C(N)N)NC(=O)[C@H](CC(C)C)NC(=O)[C@@H](Cc1c[nH]c2ccccc12)NC(=O)[C@H](Cc1ccc(O)cc1)N(C)C(=O)[C@H](CO)NC(=O)[C@H](Cc1c[nH]c2ccccc12)NC(=O)[C@H](Cc1c[nH]cn1)NC(=O)[C@@H]1CCC(=O)N1` [Ex. 20, (pyro)Glu-His-Trp-Ser-N-Me-Tyr-D-Trp-Leu-Arg-ProNHEt]: the Ki was 0.0158 nM.
For `CCNC(=O)[C@@H]1CCCN1C(=O)[C@H](CCCN=C(N)N)NC(=O)[C@H](CC(C)C)NC(=O)[C@@H](CC(C)C)N(C)C(=O)[C@H](Cc1ccc(O)cc1)NC(=O)[C@H](CO)NC(=O)[C@H](Cc1c[nH]c2ccccc12)NC(=O)[C@H](Cc1cnc[nH]1)NC(=O)[C@@H]1CCC(=O)N1` [Ex. 22, (pyro)Glu-His-Trp-Ser-Tyr-N-Me-D-Leu-Leu-Arg-ProNHEt], the Ki is 0.692 nM.

Another test has as its system serum LH concentration. Nature of the test: In vivo LH release in castrated rats (serum LH by RIA). To be noted: i.v., dose producing half-maximal time integrated LH release. How it is done:
as §1
`CCNC[C@@H](C(=O)N[C@@H](Cc1ccc(O)cc1)C(=O)N[C@H](Cc1c[nH]c2ccccc12)C(=O)N[C@@H](CC(C)C)C(=O)N[C@@H](CCCNC(=N)N)C(=O)N1CCC[C@H]1C(=O)NCC)N(C)C(=O)[C@H](Cc1c[nH]c2ccccc12)NC(=O)[C@H](Cc1c[nH]cn1)NC(=O)CN(C)C(C)=O` [Ex. 7, N-Ac-Sar-His-Trp-(3)-N-Et-(2)-N-Me-Dap-Tyr-D-Trp-Leu-Arg-Pro-NHEt] (Ac-[Sar]HW[X1]Y[dW]LRP-NHEt) yielded an ED₅₀ of 9.64 µg/kg.
As to `CCNC(=O)CC[C@H](NC(=O)NCC)C(=O)N[C@@H](Cc1c[nH]cn1)C(=O)N[C@@H](Cc1c[nH]c2ccccc12)C(=O)N(C)[C@@H](CO)C(=O)N[C@@H](Cc1ccc(O)cc1)C(=O)N[C@H](Cc1c[nH]c2ccccc12)C(=O)N[C@@H](CC(C)C)C(=O)N[C@@H](CCCNC(=N)N)C(=O)N1CCC[C@H]1C(=O)NCC` [Ex. 12, (2)-N-(Ethylaminocarbonyl)-(5)-N-ethylamido-Glu-His-Trp-N-Me-Ser-Tyr-D-Trp-Leu-Arg-Pro-NHEt], the ED₅₀ was determined as 9.90 µg/kg.
Still for that read-out and setting: in the case of `CC(C)C[C@H](NC(=O)CNC(=O)[C@H](Cc1ccc(O)cc1)NC(=O)[C@H](CO)NC(=O)[C@H](Cc1c[nH]c2ccccc12)NC(=O)[C@H](Cc1c[nH]cn1)NC(=O)[C@@H]1CCC(=O)N1)C(=O)N[C@@H](CCCNC(=N)N)C(=O)N1CCC[C@H]1C(=O)NCC(N)=O` [LHRH, reference compound] it was 100 µg/kg.
